# According to US20250041308A1, “BRUTON'S TYROSINE KINASE INHIBITORS AS ANTIVIRAL AGENTS” (University of Florida Research Foundation, Incorporated, priority 2022, published 2025):
# Tests used:
# Assay type in all cases: cell-based, Epstein-Barr virus (EBV)
# [1] = system: EBV lytic cycle proteins ZEBRA and EA-D in EBV-positive HH514-16 Burkitt lymphoma cell line; test: Immunoblotting for ZEBRA and EA-D in HH514-16 cells induced with sodium butyrate
# Text: Cells were harvested and subjected to immunoblotting with monoclonal antibodies to ZEBRA and EA-D (Early antigen-diffuse). EA-D is useful in the diagnosis of acute Epstein-Barr virus (EBV) infection and EBV reactivation and functions downstream of ZEBRA.
# Cells were harvested and subjected to immunoblotting with monoclonal antibodies to ZEBRA or the control protein β-actin to analyze protein expression.
# [2] = system: EBV lytic cycle (ZEBRA) in EBV-positive Mutu-I Burkitt lymphoma cells; test: Flow cytometry for ZEBRA in Mutu-I cells, lytic cycle induced with sodium butyrate; details: sodium butyrate 24 hours, 2 h pretreatment
# Text: Cells were harvested, fixed and permeabilized, stained with a monoclonal antibody to the viral latent-to-lytic switch protein ZEBRA, and examined by flow cytometry. Cells were stained in parallel with an isotype-matched control antibody for placement of gates. […] Decreasing EBV switching to lytic phase decreases the risk of the B cells developing lymphoma.
# [3] = system: ZEBRA and cleaved caspase 1 in EBV-positive Mutu-I Burkitt lymphoma cells; test: Immunoblotting for ZEBRA, procaspase 1 and cleaved caspase 1 in Mutu-I cells induced with sodium butyrate; details: 1 μM for 2 hours before sodium butyrate for 24 hours, FIG. 7
# Text: Cells were harvested and subjected to immunoblotting with monoclonal antibodies to ZEBRA, procaspase 1, cleaved caspase 1, or the control protein β-actin to analyze protein expression. […] Cleavage of caspase is a marker for programmed cell death.
# [4] = system: EBV lytic cycle (ZEBRA) in EBV-positive Akata Burkitt lymphoma cell line; test: Flow cytometry for ZEBRA in Akata cells, lytic cycle induced with rabbit-anti human IgG; details: for Percent positive cells ZEBRA: Rabbit anti-human IgG induction 24 h, 2 h pretreatment
# Text: Akata cells are an EBV-producer line established from a patient with Burkitt's lymphoma. Akata cells produce transforming virus upon treatment of cells with anti-immunoglobulin antibodies. Cells were harvested, fixed and permeabilized, stained with a monoclonal antibody to the viral latent-to-lytic switch protein ZEBRA (Z EBV Replication Activator), and examined by flow cytometry. Cells were stained in parallel with an isotype-matched control antibody for placement of gates.
# [5] = system: EBV lytic cycle proteins ZEBRA and EA-D in EBV-positive HH514-16 Burkitt lymphoma cell line; test: Immunoblotting for ZEBRA and EA-D in HH514-16 cells induced with AZA; details: HH514-16, varying concentrations 2 hours before AZA for 24 hours, FIG. 2
# Text: (§1) Cells were harvested and subjected to immunoblotting with monoclonal antibodies to ZEBRA and EA-D (Early antigen-diffuse).
# [6] = system: EBV lytic cycle (ZEBRA) in EBV-positive HH514-16 Burkitt lymphoma cell line; test: Flow cytometry for ZEBRA in HH514-16 cells, lytic cycle induced with sodium butyrate; details: for Percent positive cells ZEBRA: 2 h pretreatment
# Text: Cells were harvested, fixed and permeabilized, stained with a monoclonal antibody to the viral latent-to-lytic switch protein ZEBRA (Z EBV Replication Activator), and examined by flow cytometry. ZEBRA is an early lytic protein of EBV, encoded by BZLFI, that drives the lytic cascade. Cells were stained in parallel with an isotype-matched control antibody for placement of gates. […] Decreasing EBV switching to lytic phase decreases the risk of the B cells developing lymphoma.
# [7] = system: EBV lytic cycle (ZEBRA) in EBV-positive HH514-16 Burkitt lymphoma cell line; test: Flow cytometry for ZEBRA in HH514-16 cells, lytic cycle induced with AZA; details: for Percent positive cells ZEBRA: 2 h pretreatment
# Text: Cells were harvested, fixed and permeabilized, stained with a monoclonal antibody to the viral latent-to-lytic switch protein ZEBRA (Z EBV Replication Activator), and examined by flow cytometry. Cells were stained in parallel with an isotype-matched control antibody for placement of gates.
# [8] = system: EBV lytic cycle proteins ZEBRA and EA-D in EBV-positive Akata Burkitt lymphoma cell line; test: Immunoblotting for ZEBRA and EA-D in Akata cells induced with anti-IgG; details: varying concentrations 2 hours before anti-IgG for 24 hours, FIG. 3
# Text: as §1
# [9] = HH514-16, varying concentrations 2 hours before sodium butyrate for 24 hours, FIG. 4
# [10] = HH514-16, varying concentrations 2 hours before NaB for 24 or 48 hours, FIG. 1
smiles,measurement,setting,value
C=CC(=O)N1CCC([C@@H]2CCNc3c(C(N)=O)c(-c4ccc(Oc5ccccc5)cc4)nn32)CC1 [Zanubrutinib],expression of ZEBRA (immunoblot),[1]; [9],significantly reduced
same,Percent ZEBRA positive cells,[2]; inhibitor conc. 1 μM,0.65%
same,Percent ZEBRA positive cells,[2]; inhibitor conc. 10 μM,0.85%
same,Cleaved caspase 1 (immunoblot),[3],significantly reduced
same,expression of ZEBRA (immunoblot),[3],significantly reduced
CC#CC(=O)N1CCC[C@H]1c1nc(-c2ccc(C(=O)Nc3ccccn3)cc2)c2c(N)nccn12 [Acalabrutinib],expression of ZEBRA (immunoblot),[1]; [9],significantly reduced
same,Percent ZEBRA positive cells,[2]; inhibitor conc. 1 μM,1.15%
same,Percent ZEBRA positive cells,[2]; inhibitor conc. 10 μM,0.92%
same,Cleaved caspase 1 (immunoblot),[3],significantly reduced
same,expression of ZEBRA (immunoblot),[3],significantly reduced
C=CC(=O)N1CCC[C@@H](n2nc(-c3ccc(Oc4ccccc4)cc3)c3c(N)ncnc32)C1 [Ibrutinib],expression of EA-D (immunoblot),[1]; [10],significantly reduced
same,expression of ZEBRA (immunoblot),[1]; [10],significantly reduced
same,expression of ZEBRA (immunoblot),[1]; [9],significantly reduced
same,Percent positive cells ZEBRA,[4]; ibrutinib 0.25 μM,7%
same,Percent positive cells ZEBRA,[4]; ibrutinib 0.5 μM,7%
same,Percent positive cells ZEBRA,[4]; ibrutinib 1 μM,5.5%
same,Percent positive cells ZEBRA,[4]; ibrutinib 2 μM,5.7%
same,Percent positive cells ZEBRA,[4]; ibrutinib 5 μM,5.7%
same,"levels of ZEBRA (flow cytometry, in words)","[4]; rabbit-anti human IgG 24 hours, varying concentrations",decreased
same,expression of EA-D (immunoblot),[5],significantly reduced
same,expression of ZEBRA (immunoblot),[5],significantly reduced
same,"levels of ZEBRA (flow cytometry, in words)","[6]; HH514-16, NaB 24 or 48 hours, varying concentrations",decreased
same,Percent positive cells ZEBRA,"[6]; HH514-16, Sodium Butyrate induction 24 h, ibrutinib 0.25 μM",13%
same,Percent positive cells ZEBRA,"[6]; HH514-16, Sodium Butyrate induction 24 h, ibrutinib 0.5 μM",9.5%
same,Percent positive cells ZEBRA,"[6]; HH514-16, Sodium Butyrate induction 24 h, ibrutinib 1 μM",9.0%
same,Percent positive cells ZEBRA,"[6]; HH514-16, Sodium Butyrate induction 24 h, ibrutinib 2 μM",8.6%
same,Percent positive cells ZEBRA,"[6]; HH514-16, Sodium Butyrate induction 24 h, ibrutinib 5 μM",7.0%
same,Percent positive cells ZEBRA,"[6]; HH514-16, Sodium Butyrate induction 48 h, ibrutinib 0.25 μM",38%
same,Percent positive cells ZEBRA,"[6]; HH514-16, Sodium Butyrate induction 48 h, ibrutinib 0.5 μM",30%
same,Percent positive cells ZEBRA,"[6]; HH514-16, Sodium Butyrate induction 48 h, ibrutinib 1 μM",23%
same,Percent positive cells ZEBRA,"[6]; HH514-16, Sodium Butyrate induction 48 h, ibrutinib 2 μM",22%
same,Percent positive cells ZEBRA,"[6]; HH514-16, Sodium Butyrate induction 48 h, ibrutinib 5 μM",18%
same,"levels of ZEBRA (flow cytometry, in words)","[7]; HH514-16, AZA 24 or 48 hours, varying concentrations",decreased
same,Percent positive cells ZEBRA,"[7]; HH514-16, AZA induction 24 h, ibrutinib 0.25 μM",13%
same,Percent positive cells ZEBRA,"[7]; HH514-16, AZA induction 24 h, ibrutinib 0.5 μM",11%
same,Percent positive cells ZEBRA,"[7]; HH514-16, AZA induction 24 h, ibrutinib 1 μM",9.0%
same,Percent positive cells ZEBRA,"[7]; HH514-16, AZA induction 24 h, ibrutinib 2 μM",10%
same,Percent positive cells ZEBRA,"[7]; HH514-16, AZA induction 24 h, ibrutinib 5 μM",9.0%
same,Percent positive cells ZEBRA,"[7]; HH514-16, AZA induction 48 h, ibrutinib 0.25 μM",13%
same,Percent positive cells ZEBRA,"[7]; HH514-16, AZA induction 48 h, ibrutinib 0.5 μM",13%
same,Percent positive cells ZEBRA,"[7]; HH514-16, AZA induction 48 h, ibrutinib 1 μM",15%
same,Percent positive cells ZEBRA,"[7]; HH514-16, AZA induction 48 h, ibrutinib 2 μM",13%
same,Percent positive cells ZEBRA,"[7]; HH514-16, AZA induction 48 h, ibrutinib 5 μM",14%
same,Percent ZEBRA positive cells,[2]; inhibitor conc. 0.5 μM,0.52%
same,Percent ZEBRA positive cells,[2]; inhibitor conc. 1 μM,0.73%
same,expression of EA-D (immunoblot),[8],significantly reduced
same,expression of ZEBRA (immunoblot),[8],significantly reduced
